In paper PMC10218596 (International Journal of Molecular Sciences, 2023):

What was measured:
h[α6I56V/α3]β4 = h[α6I56V/α3]β4 (Homo sapiens, UniProt P30926+Q15825, I89V, form not given); type: cell-based; conditions: ACh on h[α6I56V/α3]β4
hα6/α3β4 = biological target: T1, hα6/α3β4 (Homo sapiens, UniProt P30926+P32297+Q15825); assay: Electrophysiological assay, ACh concentration-response (Xenopus oocytes); type: cell-based; conditions: ACh on hα6/α3β4
T1 construct: splicing the N-terminal extracellular domain of the α6 subunit with the α3 subunit; host or cells: Xenopus laevis oocytes injected with cRNA (1:1)
T1 sequence (Q15825+P32297 fused with the stated changes): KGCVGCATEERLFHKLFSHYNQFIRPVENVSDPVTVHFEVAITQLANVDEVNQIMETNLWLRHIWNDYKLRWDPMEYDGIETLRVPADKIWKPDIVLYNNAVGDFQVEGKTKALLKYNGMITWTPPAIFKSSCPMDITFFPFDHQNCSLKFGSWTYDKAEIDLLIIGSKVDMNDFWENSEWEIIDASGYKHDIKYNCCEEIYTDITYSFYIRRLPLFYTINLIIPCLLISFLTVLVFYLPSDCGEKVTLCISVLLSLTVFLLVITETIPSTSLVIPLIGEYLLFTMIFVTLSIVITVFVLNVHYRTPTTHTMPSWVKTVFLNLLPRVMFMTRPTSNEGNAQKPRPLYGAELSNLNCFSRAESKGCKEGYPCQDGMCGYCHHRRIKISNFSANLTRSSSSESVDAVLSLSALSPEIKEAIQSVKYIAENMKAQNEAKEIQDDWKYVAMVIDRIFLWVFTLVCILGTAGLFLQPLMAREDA
T1 sequence (P30926 22-498): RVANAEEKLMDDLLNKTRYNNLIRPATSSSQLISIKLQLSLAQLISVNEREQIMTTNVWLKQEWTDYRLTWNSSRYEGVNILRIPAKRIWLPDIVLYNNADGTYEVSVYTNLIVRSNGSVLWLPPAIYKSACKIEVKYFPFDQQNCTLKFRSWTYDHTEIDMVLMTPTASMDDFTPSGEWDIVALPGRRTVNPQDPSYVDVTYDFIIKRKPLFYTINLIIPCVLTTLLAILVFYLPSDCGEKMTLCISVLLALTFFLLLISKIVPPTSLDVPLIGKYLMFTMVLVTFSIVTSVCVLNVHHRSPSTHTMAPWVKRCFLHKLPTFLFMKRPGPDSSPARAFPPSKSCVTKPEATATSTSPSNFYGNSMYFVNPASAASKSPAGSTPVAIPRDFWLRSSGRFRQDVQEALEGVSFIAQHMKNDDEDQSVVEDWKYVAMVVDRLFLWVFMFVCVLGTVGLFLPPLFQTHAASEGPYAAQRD

h[α6I56V/α3]β4, sequence (Q15825 26-239 I89V, form open): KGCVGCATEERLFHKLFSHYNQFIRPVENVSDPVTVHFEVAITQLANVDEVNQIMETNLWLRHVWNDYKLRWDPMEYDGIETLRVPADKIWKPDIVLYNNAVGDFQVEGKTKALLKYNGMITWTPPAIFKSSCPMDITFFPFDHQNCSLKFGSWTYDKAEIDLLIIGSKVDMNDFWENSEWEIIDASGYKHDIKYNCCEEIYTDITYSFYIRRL
h[α6I56V/α3]β4, sequence (P30926 22-498, form open): as the sequence (P30926 22-498) above
h[α6I56V/α3]β4, sequence (P32297 241-505 partner, form open): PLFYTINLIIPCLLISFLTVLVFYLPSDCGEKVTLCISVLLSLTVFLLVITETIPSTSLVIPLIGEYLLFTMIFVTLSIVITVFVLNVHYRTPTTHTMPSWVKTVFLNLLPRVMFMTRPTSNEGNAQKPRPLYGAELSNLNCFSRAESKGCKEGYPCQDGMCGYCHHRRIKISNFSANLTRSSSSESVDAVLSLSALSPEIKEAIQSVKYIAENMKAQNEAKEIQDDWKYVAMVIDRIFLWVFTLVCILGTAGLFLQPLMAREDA

For `CC(=O)OCC[N+](C)(C)C` [ACh, acetylcholine chloride], the “Hill Slope” value (h[α6I56V/α3]β4) was 1.3 (1.1–1.5) and the “Hill Slope” value (hα6/α3β4) was 1.4 (1.2–1.7).
